Laboratory results taken from article PMC9923724, “Half sandwich-type osmium, ruthenium, iridium and rhodium complexes with bidentate glycosyl heterocyclic ligands induce cytostasis in platinum-resistant ovarian cancer cells and bacteriostasis in Gram-positive multiresistant bacteria” (Frontiers in Chemistry, 2023).
Where “and” joins values, the source holds several entries; their conditions need not be identical. Equal values may be shown once. Read-outs that look alike come from different tables or passages of the source.

How the values were obtained:
[1] = system: cisplatin resistant A2780 cells; assay: SRB assay (48 h) on cisplatin-resistant A2780 cells; assay type: cell-based
Protocol: 6 × 10^3 cisplatin-resistant A2780 cells were plated to 96 well plates. Cells were treated with the compounds in the concentrations indicated for either 4 h for an MTT assay or for 48 h for an SRB assay. Data is represented as average ± SD, from three biological replicates; individual assays were performed in duplicates. Values were normalized for vehicle treated cells, absorbance for vehicle treated cells equals to 1. Each compound was assessed individually. Normality was assessed using the Shapiro-Wilk test. […] Statistical significance was assessed using One-way ANOVA test comparing all points to the smallest concentration. For better visibility the p values are presented in an excel sheet at https://figshare.com/s/2c942a812caea8869a67. Non-linear regression was performed on the results of the SRB assay datasets.
Cisplatin resistant cells underwent selection (1 µM cisplatin) once a week for 3 days before plating for any assay.
(§1) The assay was performed similar to ([Kovács et al., 2019]). Cells were seeded in 96 well plates the day before the assay. Cells were treated with the compounds for 48 h. Cells were fixed with 10% trichloroacetic acid (TCA). Fixed cells were washed in distilled water 3 times followed by staining with SRB (0.4 m/V% dissolved in 1% acetic acid) for 10 min. Stained cells were washed in 1% acetic acid 5 times; acetic acid was removed and cells were left to dry. Protein-bound SRB was released by adding 100 µl 10 mM Tris base. Plates were measured in a plate photometer (Thermo Scientific Multiscan GO spectrophotometer, Waltham, MA, United States) at 540 nm. On each plate wells were designed to contain vehicle-treated cells. In calculations the readings for these wells was considered as 1 and all readings were expressed relative to these values.
Statistical analysis was performed using 8.0.1 version of Graphpad Prism. Values were tested for normal distribution using the D’Agostino and Pearson normality test. When necessary, values were log normalized or were normalized using the Box-Cox normalization method ([Box and Cox, 1964]) as indicated in the figure captions.

[2] = system: A2780 ovarian cancer cells; settings: ref Kacsir et al., cited from earlier work
[3] = system: methicillin-resistant Staphylococcus aureus (MRSA) clinical isolates; assay: Broth microdilution MIC, clinical MRSA isolates; assay type: cell-based; settings: for MRSA isolates susceptible out of those tested: 6 isolates tested, susceptible = MIC up to 40 µM; for MIC, MRSA 20 426: clinical isolate 20 426, blood, 2020; for MIC, MRSA 24 035: clinical isolate 24 035, wound; for MIC, MRSA 24 035 / MIC, MRSA 24 268 / MIC, MRSA 24 272 / MIC, MRSA 24 328 / MIC, MRSA 24 408: 2018; for MIC, MRSA 24 268: clinical isolate 24 268, throat; for MIC, MRSA 24 272: clinical isolate 24 272, throat; for MIC, MRSA 24 328: clinical isolate 24 328, throat; for MIC, MRSA 24 408: clinical isolate 24 408, bronchial
Protocol: (§2) The MIC values of the complexes were determined against the reference strains of S. aureus (ATCC29213) and E. faecalis. (ATCC29212) and against clinical VRE and MRSA isolates by microdilution assays (repeated at least twice in duplicates) as described in Materials and Methods. The numbers indicate how many isolates were susceptible to the compound out of those tested; i.e., 1/6 stands for 1 isolate was susceptible out of 6 tested. […] Cells were harvested and lysed. Cellular proteins was separated on a 10% SDS-PAGE gel and were blotted. Blots were probed with 4HNE antibody (top blot), the lower blot was stained with amido black. Arrows point at band of interest. Experiments were repeated three times and a representative blot is shown. On the blots brightness and contrast were adjusted. […] Each was matched to a substance and strain by its position over the x-axis categories. / Ir-7: ND and 0/3 (left plot) and ND and 0/6 (right plot) were matched to E. faecalis/VRE and S. aureus/MRSA by position only.
(§3) We used a set of clinical isloates of S. aureus and E. faecium that were collected at the Medical Center of the University of Debrecen (Hungary) between 01. 01. 2018.—31. 12. 2020. The clinical isolates were identified using a Microflex MALDI-TOF mass spectrometer (Bruker, Billerica, MA, United States). Antibiotic susceptibility of the isolates was tested following the European Committee on Antimicrobial Susceptibility Testing ([EUCAST, 2021]) guidelines valid at the time of collection.
(§4) Microdilution experiments were performed according to the standards of EUCAST ([EUCAST, 2021]). […] The inoculated plates were incubated for 24 h at 37°C then were assessed visually. […] All experiments were performed at least twice in duplicates.

[4] = system: Enterococcus faecalis (ATCC29212); assay: Broth microdilution MIC, Enterococcus faecalis reference strain; assay type: cell-based; settings: Enterococcus faecalis ATCC29212, 24 h
Protocol: as §2
(§5) We used the reference strains of Staphylococcus aureus (ATCC29213), and Enterococcus faecalis (ATCC29212) that were purchased from ATCC (Manassas, VA, United States).
as §4

[5] = Determination of the distribution coefficients (logD); assay type: physicochemical; settings: distribution coefficient
[6] = system: A2780 ovarian cancer cells; assay: SRB assay (cytostasis, 48 h) on A2780 cells; assay type: cell-based; settings: 48 h treatment
Protocol: (§6) First, we assessed a set of osmium complexes (similar to Ia [[Kacsir et al., 2022]) in Figure 1] and their sugar-derived ligands, in which the benzoyl protective groups on the carbohydrate moiety were replaced by aliphatic acyl groups of different chain length (straight chain C3-C7–CO). Osmium was selected as a central ion, since osmium complexes had the best biological activity in our previous studies ([Balázs et al., 2022]; [Kacsir et al., 2022]). These compounds were tested on A2780 ovarian cancer cells for toxicity and cytostasis. The therapy of ovarian cancer is centered around platinum compounds ([Brown et al., 2019]; [Sipos et al., 2021]), therefore, it was logical to use a cellular model of ovarian cancer for the initial testing of the compounds. Toxicity was assessed using the MTT assay that measures the activity of mitochondrial complex I. We chose 4 h long treatment as in an MTT assay this time point is suitable to detect rapid, direct toxicity. Cytostasis was assessed after 48 h of treatment using the SRB assay that assesses protein content that corresponds to cell count. The characteristics of the compounds are detailed in Table 2.
(§7) 3 × 10^3 A2780 cells, were plated to 96 well plates. Cells were treated with the compounds in the concentrations indicated for either 4 h for an MTT assay or for 48 h for an SRB assay. Data is represented as average ± SD, from three biological replicates; individual assays were performed in duplicates. Values were normalized for vehicle treated cells, absorbance for vehicle treated cells equals to 1. […] Except for the Os-6 complex, Two-way ANOVA test was performed and all values were compared with each other (Tukey’s post hoc test). […] Non-linear regression was performed on the data.
(§8) 3 × 10^3 A2780 cells, 2 × 10^3 ID8 cells and 4 × 10^3 primary fibroblasts were plated to 96 well plates. Cells were treated with the compounds in the concentrations indicated for either 4 h for an MTT assay or for 48 h for an SRB assay. Data is represented as average ± SD, from three biological replicates; individual assays were performed in duplicates. Values were normalized for vehicle treated cells, absorbance for vehicle treated cells equals to 1. Statistical significance was assessed using two-way ANOVA test comparing the free ligand and each complex as a complex-ligand pair. Before the test normality was assessed using the D’Agostino-Pearson test. The ID8 SRB Ir-7+L-7 dataset had lognormal distribution. […] All other datasets had normal distribution. For better visibility the p values are presented in an excel sheet at https://figshare.com/s/2c942a812caea8869a67. Non-linear regression was performed on the A2780 SRB and the ID8 SRB datasets.
as §1
Statistical analysis was performed using 8.0.1 version of Graphpad Prism. Values were tested for normal distribution using the D’Agostino and Pearson normality test. When necessary, values were log normalized or were normalized using the Box-Cox normalization method ([Box and Cox, 1964]) as indicated in the figure captions. […]

[7] = system: Staphylococcus aureus (ATCC29213); assay: Broth microdilution MIC, Staphylococcus aureus reference strain; assay type: cell-based; settings: for MIC, Reference S. aureus: Staphylococcus aureus ATCC29213, 24 h
Protocol: as §2, §5, §4

[8] = system: A2780 ovarian cancer cells; assay: MTT reduction assay (rapid toxicity, 4 h) on A2780 cells; assay type: cell-based; settings: 4 h treatment
Protocol: as §6, §7, §8
(§9) MTT reduction assay measures the activity of mitochondrial complex I and can be used to detect toxicity ([Virág et al., 1998]; [Henslee et al., 2016]). The assay was performed similar to ([Bakondi et al., 2003]). Briefly, cells were plated in 96 well plates the day before the assay. Cells were treated with the compounds for 4 h, then MTT was added in 0.5 mg/ml final concentration and cells were incubated at 37°C in a cell incubator. Culture media was removed and the reduced MTT dye was dissolved in dimethyl-sulfoxide (DMSO) and plates were measured in a plate photometer (Thermo Scientific Multiscan GO spectrophotometer, Waltham, MA, United States) at 540 nm. On each plate wells were designed to contain untreated/vehicle-treated cells. In calculations the readings for these wells was considered as 1 and all readings were expressed relative to these values.

[9] = system: vancomycin-resistant Enterococcus (VRE) clinical isolates; assay: Broth microdilution MIC, clinical VRE isolates; assay type: cell-based, E. faecium; settings: for VRE isolates susceptible out of those tested: 3 isolates tested, susceptible = MIC up to 40 µM; for MIC, VRE 25 051: clinical isolate 25 051, nephrostoma; for MIC, VRE 25 051 / MIC, VRE 25 498 / MIC, VRE 27 085: 2018; for MIC, VRE 25 498: clinical isolate 25 498, rectal swab; for MIC, VRE 27 085: clinical isolate 27 085, wound
Protocol: as §2, §3, §4

[10] = system: multiresistant bacteria (Staphylococcus aureus, Enterococcus species); design: method as in Balázs et al., 2022; settings: ref Balázs et al., 2022; cited from earlier work
[11] = system: primary dermal fibroblasts; assay: MTT reduction assay (4 h) on primary fibroblasts; assay type: cell-based; settings: primary human dermal fibroblasts
Protocol: as §8
Human primary dermal fibroblasts were cultured in low glucose DMEM (1 g/L glucose) medium supplemented with 20% fetal calf serum, 2 mM glutamine, 1% penicillin-streptomycin.
as §9

[12] = cisplatin resistant A2780 cells, SRB, 48 h

Row | SMILES | MRSA isolates susceptible out of those tested [3] | MIC, MRSA 20 426 [3] | MIC, MRSA 24 035 [3] | MIC, MRSA 24 268 [3] | MIC, MRSA 24 272 [3] | MIC, MRSA 24 328 [3] | MIC, MRSA 24 408 [3] [µM] | MIC, Reference E. faecalis [4] | LogD [5] | A2780 SRB Max. (maximal inhibition) [6] [%] | IC50 [6] [µM] | MIC, Reference S. aureus [7] | A2780 MTT Max. (maximal inhibition) [8] [%] | VRE isolates susceptible out of those tested [9] | MIC, VRE 25 051 [9] [µM] | MIC, VRE 25 498 [9] [µM] | MIC, VRE 27 085 [9] [µM] | further results
1 | N.N.[Cl][Pt][Cl] [Cisplatin, cisplatin, reference compound] |  |  |  |  |  |  |  |  |  |  |  |  |  |  |  |  |  | fold change of IC50, cisplatin resistant vs cisplatin sensitive A2780 ([1]; SRB assays, resistant / sensitive A2780): 13.6 fold; IC50 [1, 12]: 16.5 µM; cisplatin resistant A2780 SRB Max. (maximal inhibition) [1, 12]: >90%; A2780 SRB Max. (maximal inhibition), cisplatin ([2]; A2780 cells, SRB, 2021): >90%; IC50 ([2]; cisplatin-sensitive A2780 cells, SRB, 2021, read-out: A2780 SRB IC50, cisplatin): 1.21 µM
2 | CCCCC(=O)OCC1OC(n2cc(-c3ccccn3)nn2)C(OC(=O)CCCC)C(OC(=O)CCCC)C1OC(=O)CCCC.Cc1ccc(C(C)C)cc1.F[P-](F)(F)(F)(F)F.[Cl][Os+] (mixture of isomers) [Os-3] | 6/6 | 5 µM | 2.5 µM | 2.5 µM | 5 µM | 2.5 µM | 5 | 2.5—10 µM and 5 µM | 2.6 | >90 | 2.1 | 2.5—10 µM and 2.5 µM | 84.4 | 3/3 | 5 | 5 | 5 | 
3 | Cc1ccc(C(C)C)cc1.F[P-](F)(F)(F)(F)F.O=C(OCC1OC(n2cc(-c3ccccn3)nn2)C(OC(=O)c2ccccc2)C(OC(=O)c2ccccc2)C1OC(=O)c1ccccc1)c1ccccc1.[Cl][Os+] (mixture of isomers) [Ia] |  |  |  |  |  |  |  |  |  |  |  |  |  |  |  |  |  | MIC on multiresistant bacteria [10]: 0.3 to 5.0 µM; IC50 ([2]; A2780 cells, 2022, read-out: IC50 against A2780 ovarian cancer): 0.73 µM
4 | CCCCCC(=O)OCC1OC(n2cc(-c3ccccn3)nn2)C(OC(=O)CCCCC)C(OC(=O)CCCCC)C1OC(=O)CCCCC.Cc1ccc(C(C)C)cc1.F[P-](F)(F)(F)(F)F.[Cl][Os+] (mixture of isomers) [Os-4] | 1/6 | 40< µM | 40< µM | 40< µM | 40< µM | 40< µM | 40 | 40 µM | 2.7 | >90 | 3.87 | 40< µM | 84.4 | 3/3 | 40 | 40 | 40 | MIC (μM) (S. aureus), Figure 11 ([7]; reference strain ATCC29213): ND (ND—not detected, MIC>40 µM)
5 | Cc1c(C)c(C)[c-](C)c1C.F[P-](F)(F)(F)(F)F.O=C(OCC1OC(n2cc(-c3ccc4ccccc4n3)nn2)C(OC(=O)c2ccccc2)C(OC(=O)c2ccccc2)C1OC(=O)c1ccccc1)c1ccccc1.[Cl][Rh+2] (mixture of isomers) [Rh-7] |  |  |  |  |  |  |  |  |  | 47.9 |  |  | 18.3 |  |  |  |  | Fibroblast MTT Max. (maximal inhibition) [11]: 15.09%
